For test [1], the target named is T1, Sting protein (Homo sapiens, UniProt Q86WV6, G230A/H232R/R293Q/R71H).
T1 construct: endogenous in cells; host or cells: THP1 cells (Shanghai Cell Bank)
Put plainly: Agonistic function test on Sting protein: IFN-β and CXCL10 (IP10) cytokines produced by THP1 cells (ELISA). To be noted: for EC50: 18 hours, ELISA of supernatant; for activity of stimulating IFN-β and CXCL10 (IP10) cytokines produced by THP1 cells (in words): listed compounds compared with the reference compound. Type of test: cell-based. How it is done:
In this experiment, the function of sting agonist was evaluated by detecting the changes of IFN-β and CXCL10 (IP10) cytokines produced by human peripheral blood mononuclear cell line THP1 cells (Shanghai Cell Bank) stimulated by the compounds. On the first day of the experiment, the ELISA plate was coated according to the IFN-β (R&D, #DY814-05) and IP10 (BD, #550926) ELISA test kit instructions. The compound was dissolved into DMSO stock solution and diluted with culture medium to a 2× working concentration, added to a 96-well plate, 100 μL per well. The THP1 cells in the logarithmic growth phase were taken to count, and were diluted to a concentration of 2*10^6/mL, added to the above-mentioned 96-well plate containing the compounds, with […], per well, mixed well, and incubated in a 37° C., 5% CO2 incubator for 18 hours. On the second day, the above cell culture supernatant was taken, 100 μL per well, and tested according to IFN-β and IP10 ELISA test kits respectively. The OD450 value was read, and converted into IFN-β and IP10 concentration according to the standard curve, and fitted with GraphPad 5.0 to calculate the EC50 value of the dose-efficiency curve.

In test [2] the target is Sting protein (Homo sapiens, UniProt Q86WV6). In words: Binding affinity test of the compound and Sting protein by protein thermal transfer test (TSA). To be noted: Kd fitted from change of ΔTm with compound concentration. On the procedure: The protein thermal transfer test (TSA) was used to determine the binding affinity of the compound to Sting protein. The 100 ug/ml Sting protein was mixed with different concentrations of the compound and 5× SYPRO Orange dye in a buffer of 20 mM Hepes, 150 mM NaCl, 1 mM MgCl2, 1 mM DTT, pH=7.5. The protein dissolution curve was measured on a qPCR instrument, the Tm value was fitted with Protein Thermal Shift Software 1.3 software, and the Tm difference of the protein was calculated when different concentrations of compound and no compound were added. The dissociation constant Kd was fitted and obtained according to the change of ΔTm with the concentration of the compound. […] The Kd value of each compound is classified according to the following instructions: […]
Sting protein (Homo sapiens, UniProt Q86WV6), sequence (Q86WV6 whole entry H232R, species assumed): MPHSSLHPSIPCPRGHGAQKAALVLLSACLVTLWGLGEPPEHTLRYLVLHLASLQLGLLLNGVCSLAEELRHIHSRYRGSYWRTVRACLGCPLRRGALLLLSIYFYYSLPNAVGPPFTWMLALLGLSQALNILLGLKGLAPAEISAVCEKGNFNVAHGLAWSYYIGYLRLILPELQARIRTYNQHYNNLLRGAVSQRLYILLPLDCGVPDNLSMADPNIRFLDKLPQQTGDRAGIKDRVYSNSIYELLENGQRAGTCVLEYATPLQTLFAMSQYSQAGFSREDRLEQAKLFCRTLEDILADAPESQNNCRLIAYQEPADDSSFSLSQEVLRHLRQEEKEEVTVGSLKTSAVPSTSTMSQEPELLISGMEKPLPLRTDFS

The test system of test [3] is CT26 cells. In words: Tumor inhibitory effect, CT26 tumor re-excitation model. Type of test: in vivo, mice. How it is done:
The tumor regression of each group of mice in the CT26 anti-tumor efficacy model of the above experimental example 4 was further observed. After 30 days of the last administration, CT26 cells were inoculated subcutaneously on the back. Each mouse was inoculated with 100 μL cell suspension containing 5×10^5 cells; mice that have not been treated with drugs were used as a control group to inoculate CT26 cells in the same way. The tumor was observed and the growth of the tumor was recorded.

Structures are written as SMILES. Like-named read-outs stand apart in the source and are kept apart here. Bounds are passed on as bounds.

Broadly, the EC50 is the midpoint of the concentration-response curve. As usually defined, the Kd is the concentration at which binding is half-saturated.

T1 sequence (Q86WV6 whole entry R71H/G230A/H232R/R293Q): as the sequence (Q86WV6 whole entry H232R, species assumed) above, with R71H, G230A, R293Q counted along it

Turning to `CCc1nc(C)sc1C(=O)Nc1nc2cc(C(N)=O)cc(OC)c2n1C/C=C/Cn1c(NC(=O)c2cc(C)nn2CC)nc2cc(C(N)=O)cc(OCCCN3CCOCC3)c21` [Example 2, (E)-N-(5-carbamoyl-1-(4-(5-carbamoyl-2-(1-ethyl-3-methyl-1H-pyrazole-5-formylamino)-7-(3-morpholino)-1H-benzo[d]imidazol-1-yl)but-2-en-1-yl)-7-methoxy-1H-benzo[d]imidazol-2-yl)-4-ethyl-2-methylthiazole-5-formamide], the EC50 in test [1] (read-out: IFN-β EC50) and in test [1] (read-out: IP10 EC50) was 10 to 100 nM each time. Also, the “activity of stimulating IFN-β and CXCL10 (IP10) cytokines produced by THP1 cells (in words)” value (“activity of stimulating IFN-β and CXCL10” below) in test [1] was “comparable or even higher activity”. For the same molecule, in test [2], the Kd is 1000 to 10000 nM. The “tumor curve in CT26 tumor re-excitation model (FIG. 2)” value (from here on “tumor curve”) in test [3] (1.5 mg/kg) and in test [3] (4.5 mg/kg) was “overlap” each time.
As to `CCc1nc(C)sc1C(=O)Nc1nc2cc(C(N)=O)cc(OC)c2n1C/C=C/Cn1c(NC(=O)c2cc(C)nn2CC)nc2cc(C(N)=O)cc(OCCCN3CCN(C4CC4)CC3)c21` [Example 15], the EC50 in test [1] (read-out: IFN-β EC50) and in test [1] (read-out: IP10 EC50) was 10 to 100 nM in each case. The “activity of stimulating IFN-β and CXCL10” value in test [1] is recorded as “comparable or even higher activity”. Also, the Kd in test [2] lay in the range of 1000 to 10000 nM. Besides, the “tumor curve” value in test [3] (1 mg/kg) and in test [3] (3 mg/kg) was “overlap” throughout.
`CCc1nc(C)sc1C(=O)Nc1nc2cc(C(N)=O)cc(OCCCN3CCN(CC)CC3)c2n1C/C=C/Cn1c(NC(=O)c2cc(C)nn2CC)nc2cc(C(N)=O)cc(SC)c21` [Example 17]: the EC50 in test [1] (read-out: IFN-β EC50) fell in the range of 100 to 1000 nM; in test [1] (read-out: IP10 EC50) it was 10 to 100 nM. Moreover, in test [2], the Kd was 1000 to 10000 nM. Also, the “tumor curve” value in test [3] (1.5 mg/kg) is listed as “overlap”.
Consider `CCn1nc(C)cc1C(=O)Nc1nc2cc(C(N)=O)cc(SC)c2n1C/C=C/Cn1c(NC(=O)c2c(F)c(C)nn2CC)nc2cc(C(N)=O)cc(OCCCN3CCOCC3)c21` [Example 51, (E)-1-(4-(5-(5-carbamoyl-2-)(1-styrene-3-methyl-1H-pyrazole-5-formylamino)-7-(methylthio)-1H-benzo[d]imidazol-1-yl)but-2-en-1-yl)-2-(1-styrene-4-fluoro-3-methyl-1H-pyrazole-5-anthralamido)-7-(3-morpholinopropoxy)-1H-benzo[d]imidazole-5-formylamide], for which the EC50 in test [1] (read-out: IFN-β EC50) is 10 to 100 nM; in test [1] (read-out: IP10 EC50), below 10 nM. Also, in test [1], the “activity of stimulating IFN-β and CXCL10” value is given as “comparable or even higher activity”. Further, the Kd in test [2] was 1000 to 10000 nM.
As for `CCc1nc(C)sc1C(=O)Nc1nc2cc(C(N)=O)cc(OC)c2n1C/C=C/Cn1c(NC(=O)c2cc(C)nn2CC)nc2cc(C(N)=O)cc(OCCCN3CCN(C(C)=O)CC3)c21` [Example 29], the EC50 lay in the range of 100 to 1000 nM in test [1] (read-out: IFN-β EC50) and 10 to 100 nM in test [1] (read-out: IP10 EC50). The Kd in test [2] is 1000 to 10000 nM. For the same molecule, the “tumor curve” value in test [3] (1 mg/kg) is reported as “overlap”.
On to `CCc1nc(C)sc1C(=O)Nc1nc2cc(C(N)=O)cc(OCCCN3CCN(C)CC3)c2n1C/C=C/Cn1c(NC(=O)c2cc(C)nn2CC)nc2cc(C(N)=O)cc(OC)c21` [Example 7, (E)-N-(5-carbamoyl-1-(4-(5-carbamoyl-2-(1-ethyl-3-methyl-1H-pyrazole-5-formylamino)-7-methoxy-1H-benzo[d]imidazol-1-yl)but-2-en-1-yl)-7-(3-(4-methylpiperazin-1-yl)propoxy)-1H-benzo[d]imidazol-2-yl)-4-ethyl-2-methylthiazole-5-formylamide], for which the EC50 in test [1] (read-out: IFN-β EC50) and in test [1] (read-out: IP10 EC50) was 100 to 1000 nM throughout. For the same molecule, the Kd in test [2] fell in the range of 1000 to 10000 nM.
Turning to `CCc1nc(C)sc1C(=O)Nc1nc2cc(C(N)=O)cc(OCCCN3CCN(CC)CC3)c2n1C/C=C/Cn1c(NC(=O)c2cc(C)nn2CC)nc2cc(C(N)=O)cc(OC)c21` [Example 8], the EC50 in test [1] (read-out: IFN-β EC50) lay within 100 to 1000 nM; in test [1] (read-out: IP10 EC50), 10 to 100 nM. For the same molecule, the Kd in test [2] lay within 1000 to 10000 nM.
Consider `CCc1nc(C)sc1C(=O)Nc1nc2cc(C(N)=O)cc(OCCCN3CCN(C(C)C)CC3)c2n1C/C=C/Cn1c(NC(=O)c2cc(C)nn2CC)nc2cc(C(N)=O)cc(OC)c21` [Example 9], for which the EC50 lay in the range of 100 to 1000 nM in test [1] (read-out: IFN-β EC50) and 10 to 100 nM in test [1] (read-out: IP10 EC50). In addition, the equilibrium dissociation constant (Kd) in test [2] is 1000 to 10000 nM.
For `CCc1nc(C)sc1C(=O)Nc1nc2cc(C(N)=O)cc(OCCCN3CCN(C4CC4)CC3)c2n1C/C=C/Cn1c(NC(=O)c2cc(C)nn2CC)nc2cc(C(N)=O)cc(SC)c21` [Example 19], the EC50 in test [1] (read-out: IFN-β EC50) and in test [1] (read-out: IP10 EC50) was below 10 nM in each case. The “activity of stimulating IFN-β and CXCL10” value in test [1] is “comparable or even higher activity”. The Kd in test [2] lay within 1000 to 10000 nM.
Take `CCn1nc(C)c(F)c1C(=O)Nc1nc2cc(C(N)=O)cc(OCCCN3CCOCC3)c2n1C/C=C/Cn1c(NC(=O)c2c(F)c(C)nn2CC)nc2cc(C(N)=O)cc(SC)c21` [Example 53, (E)-1-(4-(5-carbamoyl-2-(1-ethyl-4-fluoro-3-methyl-1H-pyrazole-5-carboxamino)-7-(3-morpholinopropoxy)-1H-benzo[d]imidazol-1-yl)but-2-en-1-yl)-2-(1-ethyl-4-fluoro-3-methyl-1H-pyrazole-5-formylamino)-7-(methylthio)-1H-benzo[d]imidazole-5-carboxamide]: the EC50 is 10 to 100 nM in test [1] (read-out: IFN-β EC50) and below 10 nM in test [1] (read-out: IP10 EC50). Moreover, the “activity of stimulating IFN-β and CXCL10” value in test [1] is “comparable or even higher activity”. In addition, in test [2], the Kd fell in the range of 1000 to 10000 nM.
As to `CCc1nc(C)sc1C(=O)Nc1nc2cc(C(N)=O)cc(SC)c2n1C/C=C/Cn1c(NC(=O)c2cc(C)nn2CC)nc2cc(C(N)=O)cc(OCCCN3CCN(C(C)=O)CC3)c21` [Example 41], the results for the EC50 in test [1] (read-out: IFN-β EC50) and in test [1] (read-out: IP10 EC50) were 100 to 1000 nM and 10 to 100 nM, respectively. Besides, the Kd in test [2] lay in the range of 1000 to 10000 nM.
The corresponding values for `CCc1nc(C)sc1C(=O)Nc1nc2cc(C(N)=O)cc(OCCCN3CCN(C(C)=O)CC3)c2n1C/C=C/Cn1c(NC(=O)c2cc(C)nn2CC)nc2cc(C(N)=O)cc(OC)c21` [Example 11] are 100 to 1000 nM, 10 to 100 nM and 1000 to 10000 nM.
The matching figures for `CCc1nc(C)sc1C(=O)Nc1nc2cc(C(N)=O)cc(SC)c2n1C/C=C/Cn1c(NC(=O)c2cc(C)nn2CC)nc2cc(C(N)=O)cc(OCCCN3CCN(CC)CC3)c21` [Example 21]: 100 to 1000 nM, 10 to 100 nM and 1000 to 10000 nM.
`CCc1nc(C)sc1C(=O)Nc1nc2cc(C(N)=O)cc(SC)c2n1C/C=C/Cn1c(NC(=O)c2cc(C)nn2CC)nc2cc(C(N)=O)cc(OCCCN3CCOCC3)c21` [Example 5]: the EC50 in test [1] (read-out: IFN-β EC50) is 10 to 100 nM; in test [1] (read-out: IP10 EC50), below 10 nM. In addition, in test [1], the “activity of stimulating IFN-β and CXCL10” value is “comparable or even higher activity”. Also, the Kd in test [2] was in the range of 1000 to 10000 nM. The “tumor curve” value in test [3] (1.5 mg/kg) is “overlap”.
With `CCc1nc(C)sc1C(=O)Nc1nc2cc(C(N)=O)cc(SC)c2n1C/C=C/Cn1c(NC(=O)c2cc(C)nn2CC)nc2cc(C(N)=O)cc(OCCCN3CCN(C4CC4)CC3)c21` [Example 23], the EC50 in test [1] (read-out: IFN-β EC50) and in test [1] (read-out: IP10 EC50) was 10 to 100 nM throughout. The “activity of stimulating IFN-β and CXCL10” value in test [1] is given as “comparable or even higher activity”. For the same molecule, in test [2], the Kd was in the range of 1000 to 10000 nM.
Consider `CCc1nc(C)sc1C(=O)Nc1nc2cc(C(N)=O)cc(SC)c2n1C/C=C/Cn1c(NC(=O)c2cc(C)nn2CC)nc2cc(C(N)=O)cc(OCCCN3CCN(C(C)C)CC3)c21` [Example 22], for which the EC50 was in the range of 100 to 1000 nM in test [1] (read-out: IFN-β EC50) and 10 to 100 nM in test [1] (read-out: IP10 EC50). Further, the Kd in test [2] lay in the range of 1000 to 10000 nM.
